Here are results for 39 compounds from patent US6034134A, “1-Amino-alkylcyclohexane NMDA receptor antagonists” (Merz + Co. GmbH & Co., priority 1998, dated 2000).

Structures are written as SMILES. Counter-ions that a name gives are not always drawn.

One data set concerns the target NMDA receptor. The experiment in a line: [3H]-(+)-MK-801 binding to rat cortical membranes. To be noted: for Ki: read-out: MK-801 Ki, Table 9, Cheng-Prusoff with Kd for MK-801 of […]; for IC50: read-out: [3H] MK-801 IC50, Table 7, footnote calls the values Ki. The protocol:
Male Sprague-Dawley rats (200-250 g) were decapitated and their brains were removed rapidly. The cortex was dissected and homogenized in 20 volumes of ice-cold 0.32 M sucrose using a glass-Teflon homogenizer. The homogenate was centrifuged at 1000 ×g for 10 minutes. The pellet was discarded and the supernatant centrifuged at 20,000 ×g for 20 minutes. The resulting pellet was re-suspended in 20 volumes of distilled water and centrifuged for 20 minutes at 8000 ×g. Then the supernatant and the buffy coat were centrifuged three times (48,000 ×g for 20 minutes) in the presence of 50 mM Tris-HCl, pH 8.0. All centrifugation steps were carried out at 4° C. After resuspension in 5 volumes of 50 mM Tris-HCl, pH 8.0 the membrane suspension was frozen rapidly at -80° C. On the day of assay the membranes were thawed and washed four times by resuspension in 50 mM Tris-HCl, pH 8.0 and centrifugation at 48,000 ×g for 20 minutes. The final pellet was suspended in assay buffer. The amount of protein in the final membrane preparation was determined according to the method of Lowry with some modifications. The final protein concentration used for our studies was between 250-500 μg/ml.
Membranes were re-suspended and incubated in 50 mM Tris-HCl, pH 8.0. […] Incubations were terminated using a Millipore filter system. The samples were rinsed three times with 2.5 ml ice cold assay buffer over glass fiber filters obtained from Schleicher & Schuell under a constant vacuum. Filtration was performed as rapidly as possible. Following separation and rinse, the filters were placed into scintillation liquid (5 ml; Ultima Gold) and radio activity retained on the filters was determined with a conventional liquid scintillation counter (Hewlett Packard, Liquid Scintillation Analyser).
IC50 s in patch clamp, excitotoxicity, and binding studies were calculated according to the four parameter logistic equation using the Grafit computer program (Erithacus Software, England). Ki value for binding studies were then determined according to Cheng and Prusoff. Binding values presented are means±SEM of 3-5 determinations (each performed in duplicate). […] Pearson product moment correlation analysis (Sigma Stat, Jandel Scientific) was used to compare in vitro potencies and in vivo anticonvulsant activity.

The nature of data set [1]: Rotarod test (motor coordination, ataxia) in mice, therapeutic index versus MES. The settings on record: ED50 for rotarod failure divided by ED50 for MES; for selectivity ratio at 0.5 h: mouse, in vivo, ip, read-out: TI Rot.; for TI Rot.: 30 min. Type of data set: in vivo. The protocol: All compounds were dissolved in 0.9% saline.
The MES test was performed together with tests for myorelaxant action (traction reflex) and motor coordination (rotarod). For the traction reflex test mice were placed with their forepaws on a horizontal rod and were required to place all 4 paws on the wire within 10 seconds. To test ataxia (motor coordination) mice were placed on rotarod (5 rpm) and were required to remain on the rod for 1 minute. […] These tests were followed by MES (100 Hz, 0.5 second shock duration, 50 mA shock intensity, 0.9 ms impulse duration, Ugo Basile) applied through corneal electrodes. The presence of tonic convulsions was scored (tonic extension of hind paws with minimum angle to the body of 90°). The aim was to obtain ED50 s for all parameters scored (anticonvulsive activity and motor side effects) with use of the Litchfield Wilcoxon test for quantal dose responses. Division of the ED50 for side effects (ataxia or myorelaxation) by the ED50 for antagonism of electroshock convulsions was used as a therapeutic index (TI).
IC50 s in patch clamp, excitotoxicity, and binding studies were calculated according to the four parameter logistic equation using the Grafit computer program (Erithacus Software, England). Ki value for binding studies were then determined according to Cheng and Prusoff. […] Pearson product moment correlation analysis (Sigma Stat, Jandel Scientific) was used to compare in vitro potencies and in vivo anticonvulsant activity.

Data set [2] in a line: Solubility (analytical certificates). It is filed as physicochemical.
The conditions of data set [3]: human, in vivo; cited from earlier work.

As for `C[C@@H]1CC(C)(C)C[C@@](C)(N)C1` (relative stereo) [Mrz 2/607], at NMDA receptor, the Ki stood at 7.74 µM and the half-maximal inhibitory concentration (IC50) was 8.2 µM.
The like results for `CCC[C@@]1(C)C[C@H](C)C[C@@](C)(N)C1` (relative stereo) [Mrz 2/618] were, in that order, 24 µM and 32.7 µM.
In the same order, the values of `CCC[C@]1(C)C[C@@H](C)C[C@@](C)(N)C1` (relative stereo) [Mrz 2/619] are 57.8 µM and 72.1 µM.
The like results for `CC[C@@]1(C)C[C@H](C)C[C@@](C)(N)C1` (relative stereo) [Mrz 2/622] were, in that order, 13.3 µM and 15 µM.
Take `CC[C@]1(C)C[C@@H](C)C[C@@](C)(N)C1` (relative stereo) [Mrz 2/624]: at NMDA receptor, the inhibitory constant (Ki) was 15.1 µM and the concentration for half-maximal inhibition (IC50) was found to be 15.4 µM.
In the same order, the values of `C[C@@H]1CCC[C@@](C)(N)C1` (relative stereo) [Mrz 2/625] are 52.6 µM and 46.8 µM.
In the same order, the values of `CCC[C@@H]1CCC[C@@](C)(N)C1` (relative stereo) [Mrz 2/627] are 71 µM and 70.3 µM.
In the same order, the values of `CCC[C@H]1CCC[C@@](C)(N)C1` (relative stereo) [Mrz 2/628] are 49.2 µM and 35.6 µM.
As for `CC[C@@H]1CCC[C@@](C)(N)C1` (relative stereo) [Mrz 2/629], at NMDA receptor, the Ki amounted to 49.3 µM and the IC50 was determined as 39.4 µM.
As to `CC[C@H]1CCC[C@@](C)(N)C1` (relative stereo) [Mrz 2/630], on NMDA receptor, the inhibition constant (Ki) was found to be 49.1 µM and the concentration for half-maximal inhibition (IC50) amounted to 44.3 µM.
In the same order, the values of `C[C@H]1CCC[C@@](C)(N)C1` (relative stereo) [Mrz 2/631] are 65.3 µM and 69.7 µM.
On to `CC[C@H]1CC(C)(C)C[C@@](C)(N)C1` (relative stereo) [Mrz 2/632], for which, at NMDA receptor, the Ki was determined as 2.88 µM and the IC50 is 2 µM.
Take `CC[C@@H]1CC(C)(C)C[C@@](C)(N)C1` (relative stereo) [Mrz 2/633]: at NMDA receptor, the Ki came to 5.18 µM and the IC50 was 6.8 µM.
The like results for `CCC[C@@H]1CC(C)(C)C[C@](C)(N)C1` (relative stereo) [Mrz 2/634] were, in that order, 13.4 µM and 15.5 µM.
In the same order, the values of `CCC[C@@H]1CC(C)(C)C[C@@](C)(N)C1` (relative stereo) [Mrz 2/635] are 15 µM and 7.8 µM.
For the compound `C[C@H]1CC(C)(C)C[C@@](C)(N)C1` (relative stereo) [Mrz 2/643], the selectivity ratio at 0.5 h in data set [1] came out at 2.4. Moreover, on NMDA receptor, the Ki was 4.66 µM and the IC50 was 3.6 µM.
Regarding `C[C@@H]1C[C@H](C)C[C@@](C)(N)C1` [MRZ 2/680, 1,trans-3,trans-5-Trimethylcyclohexylamine hydrochloride], in data set [1], the selectivity ratio at 0.5 h stood at 1.1. The Solubility result in data set [2] was “soluble in water, chloroform”. In addition, the inhibition constant (Ki) on NMDA receptor was determined as 30 µM.
In the case of `C[C@@H]1C[C@H](C)C[C@](C)(N)C1` [MRZ 2/681, 1,cis-3,cis-5-Trimethylcyclohexylamine hydrochloride hydrate], in data set [1], the selectivity ratio at 0.5 h came out at 5.8. The Solubility result in data set [2] is “soluble in water, chloroform”. On NMDA receptor, the Ki is 19.2 µM.
`CC[C@H]1CC(C)(C)C[C@](C)(N)C1` [MRZ 2/682, (1R, 5S) trans-3-Ethyl-1,5,5-trimethylcyclohexylamine hydrochloride]: the selectivity ratio at 0.5 h in data set [1] came out at 3.6. Also, the Solubility entry in data set [2] is recorded as “soluble in chloroform, poor soluble in water”. Moreover, the Ki at NMDA receptor was determined as 1.99 µM.
For `CC[C@H]1CC(C)(C)C[C@@](C)(N)C1` [MRZ 2/683, (1S, 5S) cis-3-Ethyl-1,5,5-trimethylcyclohexylamine hydrochloride hydrate], the selectivity ratio at 0.5 h in data set [1] was determined as 3.5. Also, in data set [2], the Solubility entry was “soluble in chloroform, poor soluble in water”. The inhibition constant Ki at NMDA receptor worked out at 4.44 µM.
For the compound `CC12CC3CC(C)(C1)CC(N)(C3)C2` [Memantine, reference compound], the selectivity ratio at 0.5 h in data set [1] was determined as 2.5. Also, on NMDA receptor, the Ki is 2.45 µM and the IC50 amounted to 0.7 µM. Also, in data set [3], the “side effects in humans” value is recorded as “rarely produce side effects at the therapeutic doses”.
`CC1(C)CC(N)CC(C)(C)C1` [Mrz 2/557]: at NMDA receptor, the Ki turned out to be 19.9 µM and the IC50 stood at 17.6 µM.
Take `CC1(C)CC(CN)CC(C)(C)C1.Cl` [Mrz 2/580, 3,3,5,5-tetramethylcyclohexylmethylamine hydrochloride]: on NMDA receptor, the inhibitory constant (Ki) is 17.8 µM and the IC50 amounted to 15.9 µM.
On to `CCC1(N)CC(C)(C)CC(C)(C)C1` [Mrz 2/600, 1-amino-1-ethyl-3,3,5,5-tetramethylcyclohexane], for which, on NMDA receptor, the inhibition constant (Ki) was determined as 2.28 µM and the IC50 came out at 2.4 µM.
Turning to `CCCC1(N)CC(C)(C)CC(C)(C)C1` [Mrz 2/601, 1-amino-1-propyl-3,3,5,5-tetramethylcyclohexane], the “TI Rot.” value in data set [1] is on record as 1.5. At NMDA receptor, the inhibition constant (Ki) was determined as 8.09 µM and the 50% inhibitory concentration (IC50) turned out to be 7.4 µM.
For `CCCC1(C)CC(C)(C)CC(C)(N)C1` (stereo not shown) [Mrz 2/614], the selectivity ratio at 0.5 h in data set [1] came to 1.6. Also, at NMDA receptor, the Ki was 13.6 µM and the concentration for half-maximal inhibition (IC50) is 13.6 µM.
Take `CCC1(C)CC(C)(C)CC(C)(N)C1` (stereo not shown) [Mrz 2/615, 1-amino-1,3,5,5-tetramethyl-3-ethylcyclohexane]: on NMDA receptor, the inhibitory constant (Ki) is 2.42 µM and the concentration for half-maximal inhibition (IC50) worked out at 2.5 µM.
For the compound `CC1CC(C)CC(C)(N)C1` (stereo not shown) [Mrz 2/616, 1-amino-1,3,5-trimethylcyclohexane], in data set [2], the Solubility result is “soluble in svater, chloroform”. Also, on NMDA receptor, the inhibitory constant (Ki) is 10.4 µM and the IC50 was determined as 15 µM.
For the compound `CCCC1(C)CCCC(C)(N)C1` (stereo not shown) [Mrz 2/617], the selectivity ratio at 0.5 h in data set [1] came out at 1.1. Besides, at NMDA receptor, the inhibitory constant (Ki) stood at 38 µM and the IC50 turned out to be 51.8 µM.
With `CCC1(C)CCCC(C)(N)C1` (stereo not shown) [Mrz 2/620], the selectivity ratio at 0.5 h in data set [1] was 1.5. At NMDA receptor, the inhibitory constant (Ki) was 25.5 µM and the IC50 was determined as 32.2 µM.
For the compound `CC1(C)CCCC(C)(N)C1` (stereo not shown) [Mrz 2/621], the selectivity ratio at 0.5 h in data set [1] was found to be 1.5. On NMDA receptor, the inhibition constant (Ki) is 32.2 µM and the IC50 turned out to be 36.7 µM.
In the case of `CCC1(CC)CC(C)(C)CC(C)(N)C1` (stereo not shown) [Mrz 2/623, 1-amino-1,5,5-trimethyl-3,3-diethylcyclohexane], at NMDA receptor, the inhibition constant (Ki) was 3.16 µM and the 50% inhibitory concentration (IC50) stood at 3.3 µM.
As for `CCCC1(CCC)CC(C)(C)CC(C)(N)C1` (stereo not shown) [Mrz 2/626], the selectivity ratio at 0.5 h in data set [1] was determined as 1. Besides, at NMDA receptor, the Ki came to 16.5 µM and the half-inhibitory concentration (IC50) stood at 11.6 µM.
As to `CCNC1(C)CC(C)(C)CC(C)(C)C1` [Mrz 2/639, N-ethyl-1-amino-1,3,3,5,5-pentamethylcyclohexane], at NMDA receptor, the Ki stood at 4.17 µM and the concentration for half-maximal inhibition (IC50) is 3.3 µM.
The like results for `CNC1(C)CC(C)(C)CC(C)(C)C1.Cl` [Mrz 2/640, N,1,3,3,5,5-hexamethylcyclohexanamine hydrochloride] were, in that order, 4.83 µM and 3.7 µM.
The like results for `CC1(N)CCCCC1` [Mrz 2/641] were, in that order, 143 µM and 184 µM.
With `CN(C)C1(C)CC(C)(C)CC(C)(C)C1` [Mrz 2/642], the “TI Rot.” value in data set [1] is 5.3. Further, at NMDA receptor, the inhibition constant (Ki) came to 12.7 µM and the half-maximal inhibitory concentration (IC50) is 10.2 µM.
As to `CC1(C)CC(CCN)CC(C)(C)C1` [Mrz 2/644], on NMDA receptor, the Ki came out at 4.84 µM and the IC50 amounted to 3.8 µM.
Take `CC(C)(N)CC1CC(C)(C)CC(C)(C)C1` [Mrz 2/645]: in data set [1], the selectivity ratio at 0.5 h turned out to be 0.6. Moreover, at NMDA receptor, the inhibitory constant (Ki) is 60.2 µM and the half-maximal inhibitory concentration (IC50) came to 85.1 µM.
